Assay results taken from patent US6737421B1, “Cyclo-alkyl substituted benzimidazoles and their use as PARP inhibitors” (Abbott GmbH & Co. KG, priority 1999, dated 2004).

Columns and labels:
[1] = literature report; cited from earlier work
[2] = Determination of the solubility in water; type: physicochemical; details: adjusted to pH 5-6 with sodium acetate solution, final dimethyl sulfoxide ≦1% if not a water-soluble salt
Description: EXAMPLE B Determination of the Solubility in Water […] If the measured substance is not in the form of a water-soluble salt, it was dissolved in the minimum amount of dimethyl sulfoxide and then diluted with water (final dimethyl sulfoxide concentration ≦1%), after which the pH was again adjusted.

Structure (SMILES) | effect in a model of circulatory failure [1] | solubility in water [2]
NC(=O)c1cccc(N)c1 [3-aminobenzamide] | protective effects | 
COc1ccc(-c2nc3cccc(C(N)=O)c3[nH]2)cc1 [NU 1076] |  | < 0.01%
